Earlier results, collected in patent publication US8461314B2, “Nucleic acid sequences for biosynthesis of non-MccJ25-related lariat peptides” (Rutgers, The State University of New Jersey, priority 2007, dated 2013).

Tests used:
[1] = system: mesophilic endo- and exopeptidease
[2] = system: Salmonella sp.
[3] = biological target: Thermus-Deinoccoccus bacterial RNAP (Thermus thermophilus, UniProt Q8RQE8+Q8RQE9); settings: including, for example
[4] = biological target: bacterial RNA polymerase (Escherichia coli, UniProt P0A8T7+P0A8V2)
[5] = biological target: Gram-negative bacterial RNA polymerase (Escherichia coli, UniProt P0A8T7+P0A8V2)
[6] = system: Gram-positive bacterial; settings: Gram-positive bacteria
[7] = system: Escherchia coli
[8] = system: Thermococcus-Deinococcus bacterial growth; settings: Thermococcus-Deinococcus bacteria
[9] = tested thermal and chemical denaturants
[10] = system: RNA polymerase derivatives resistant to rifamycins
[11] = biological target: Gram-positive bacterial RNAP (Bacillus subtilis, UniProt P37870+P37871)

Substance | resistance to proteolysis [1] | antibacterial activity [2] | inhibition of Thermus-Deinoccoccus bacterial RNAP [3] | inhibition of bacterial RNA polymerase [4] | inhibition of Gram-negative bacterial RNA polymerase [5] | inhibition of bacterial growth [6] | antibacterial activity [7] | inhibition of bacterial growth [8] | resistance to denaturation [9] | ability to inhibit RNA polymerase derivatives resistant to rifamycins [10] | cross-resistance with rifamycins [10] | inhibition of Gram-positive bacterial RNAP [11]
Gly1-Gly2-Ala3-Gly4-His5-Pro6-Val7-Glu8-Tyr9-Phe10-Val11-Gly12-Ile13-Gly14-Thr15-Pro16-Ile17-Ser18-Phe19-Tyr20-Gly21 cyclic(8→1) peptide [MccJ25] | complete resistance | exhibits antibacterial activity | does not inhibit | inhibits | inhibits | not inhibit | exhibits antibacterial activity | not inhibit | complete resistance | retains full ability to inhibit | no cross-resistance | does not inhibit
propeptin |  |  | inhibit | inhibit | inhibit |  |  |  |  |  |  | inhibit
